Our source for the Hill coefficient, Ki and IC50 values is patent US7960374B2, “Tricyclic compounds, compositions, and methods useful in the treatment or prophylaxis of 5-HT6 receptor-related disorders” (Proximagen Limited, priority 2006, dated 2011).

In assay [1] the target is T1, human 5-HT6 receptor (Homo sapiens, UniProt P50406).
T1 construct: expressed in transfected cells; host or cells: HEK293
Put plainly: 5-HT6 receptor binding assay ([3H]-LSD, SPA). The conditions noted are these: for Ki: [3H]-LSD as labeled ligand, membranes of HEK293 cells expressing human 5-HT6, read-out: Binding affinity (Ki) at the human 5-HT6 receptor.

Assay [2] addresses T1, human 5-HT6 receptor. Put plainly: 5-HT6 intrinsic activity assay (inhibition of 5-HT induced increase in cAMP). The format is cell-based. The note with it: read-out: Antagonist potency at the human 5-HT6 receptor, fKi (= IC50,corr). As to the method:
(b) 5-HT6 Intrinsic Activity Assay
Briefly, HEK293/5-HT6 cells were seeded in polylysine coated 96-well plates at a density of 25,000/well and grown in DMEM (Dulbecco's Modified Eagle Medium) (without phenol-red) containing 5% dialyzed Foetal Bovine Serum for 48 h at 37° C. in a 5% CO2 incubator. The medium was then aspirated and replaced by 0.1 ml assay medium (Hanks Balance Salt Solution containing 20 mM HEPES, 1.5 mM isobutylmethylxanthine and 1 mg/ml bovine serum albumin). After addition of test substances, 50 μl dissolved in assay medium, the cells were incubated for 10 min at 37° C. in a 5% CO2 incubator. The medium was again aspirated and the cAMP content was determined using a radioactive cAMP kit (Amersham Pharmacia Biotech, BIOTRAK RPA559).

The structures appear in SMILES notation.

T1 sequence (P50406 whole entry): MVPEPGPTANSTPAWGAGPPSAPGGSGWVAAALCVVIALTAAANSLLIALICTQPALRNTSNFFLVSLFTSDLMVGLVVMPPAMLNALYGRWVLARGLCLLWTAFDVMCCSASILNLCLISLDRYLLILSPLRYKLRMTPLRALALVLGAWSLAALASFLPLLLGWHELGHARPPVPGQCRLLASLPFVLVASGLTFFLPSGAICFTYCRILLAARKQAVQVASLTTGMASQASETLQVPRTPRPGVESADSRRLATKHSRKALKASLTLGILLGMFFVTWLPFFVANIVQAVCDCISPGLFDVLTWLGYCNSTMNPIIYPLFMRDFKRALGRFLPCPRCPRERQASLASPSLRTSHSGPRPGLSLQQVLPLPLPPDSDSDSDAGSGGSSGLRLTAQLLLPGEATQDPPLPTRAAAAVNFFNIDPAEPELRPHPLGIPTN

As to `NCCc1c[nH]c2ccc(O)cc12` [Example 5-HT, 5-hydroxytryptamine, reference compound], the Hill coefficient at human 5-HT6 receptor [1] (three experiments) is recorded as 0.94 (SD 0.09).

With `CN1CCOc2ccc3c(ccn3S(=O)(=O)c3ccccc3)c2C1` [Example 5, 2-Methyl-8-(phenylsulfonyl)-1,3,4,8-tetrahydro-2H-[1,4]oxazepino[6,7-e]indole], the Ki on human 5-HT6 receptor [1] came out at 2 nM. In addition, on human 5-HT6 receptor [2], the IC50 was found to be 3 nM.

As for `CN1CCOc2ccc3c(ccn3S(=O)(=O)c3ccc4ncsc4c3)c2C1` [Example 10, 8-(1,3-Benzothiazol-6-ylsulfonyl)-2-methyl-1,3,4,8-tetrahydro-2H-[1,4]oxazepino[6,7-e]indole], the Ki on human 5-HT6 receptor [1] is 1 nM. Also, the 50% inhibitory concentration (IC50) on human 5-HT6 receptor [2] was 1 nM.

`O=S(=O)(c1ccccc1)n1ccc2c3c(ccc21)OCCNC3` [Example 49, 8-(Phenylsulfonyl)-1,3,4,8-tetrahydro-2H-[1,4]oxazepino[6,7-e]indole]: the Ki at human 5-HT6 receptor [1] came to 2 nM. In addition, the IC50 on human 5-HT6 receptor [2] stood at 5 nM.

Broadly, the Ki is a measure of affinity in units of concentration, obtained from inhibition or displacement. What is called IC50 is the midpoint of a concentration-inhibition curve.
